Where a name gives a salt, the structure may show the parent alone.
Experiments:
[1] = particle size distribution by laser diffractometry (Mastersizer 2000); format: physicochemical
Experimental: For Laser Diffractometry, 0.1 mL of milled suspensions were dispersed in 100 mL of demineralized water at a mixing speed of 1500 rpm with Mastersizer Hydro 2000 SM small volume dispersion unit. The particle size of the samples was measured at 25 ± 1 °C using a Mastersizer 2000 (Malvern Instruments Ltd., Malvern, UK). Laser diffraction measures the angular distribution of light scattered by the diluted sample and detects particles from 0.1 to 3000 μm. General purpose measurement with enhanced sensitivity mode was utilized, which was also useful for sample characterizations containing irregularly shaped particles. Every sample was measured three times individually, and the mean values were reported to track the changing of the particle size and span values (width of particle size distributions).

[2] = pKa and ionization state (species distribution) at the pH of the media; format: physicochemical
[3] = ampholyte; cited from earlier work
[4] = equilibrium solubility by the saturation shake-flask (SSF) method in FaSSIF/FeSSIF blank and full media; conditions: blank buffers, 37 °C
Experimental: The equilibrium solubility of the samples was determined by the SSF method. The concentrations for the blank buffers were available at the manufacturer. FaSSIF full and FeSSIF full buffers were prepared from instant SIF powder added to the blank buffers and could be used for 48 h. For FaSSIF, a full 0.224 g of SIF powder was dissolved in 100 mL of blank phosphate buffer (pH = 6.5). After 2 h, a slightly opalesque solution was formed and it meant that it was ready for the measurement. For FeSSIF, a full 1.12 g of SIF powder was dissolved in 100 mL of blank acetate buffer (pH = 5.0) and was ready to use. The samples were added in excess to the aqueous buffer solutions to produce a suspension. To measure the original samples and the micronized forms in the presence of the excipients, the same 1 to 1 mass ratio was used as in the case of nanonized samples: a physical mixture was prepared from the API and the PVA or PVPK-25.
The prepared suspensions were vigorously stirred for 6 h at a controlled 37.0 ± 0.1 °C temperature followed by a sedimentation period of 18 h. […] The concentration of the saturated solutions was determined by UV spectroscopy using a Jasco V-550 UV/VIS spectrophotometer. The aliquots taken out from solubility experiments were diluted if necessary with the buffer used for the given solubility measurement, and the absorbance was measured at the λmax. […]

[5] = original and micronized compounds before solubility measurement, upper size limit for 10% of particles
[6] = original and micronized compounds before solubility measurement, upper size limit for 50% of particles
[7] = original and micronized compounds before solubility measurement, upper size limit for 90% of particles
[8] = solid phase at end of solubility measurement, pH = 5.0
[9] = solid phase at end of solubility measurement, pH = 6.5
[10] = pH = 5.0, calculated from protonation microconstants

In the case of `NS(=O)(=O)c1cc(C(=O)O)c(NCc2ccco2)cc1Cl` [FUR original, furosemide], the “d = 0.1” value [1, 5] is reported as 7.36 µm, the “d = 0.5” value [1, 6] is reported as 62.46 µm and the “d = 0.9” value [1, 7] is reported as 294.13 µm. For the same molecule, the “d = 0.1” value [1, 8] was 16.24 µm, the “d = 0.5” value [1, 8] was 51.23 µm and the “d = 0.9” value [1, 8] was 110.56 µm. For the same molecule, the “d = 0.1” value [1, 9] was 4.72 µm, the “d = 0.5” value [1, 9] was 14.63 µm and the “d = 0.9” value [1, 9] was 35.04 µm. The “H2A (non-ionized form)” value ([2]; pH = 5.0) was 3.3% and the “HA− (monoanionic form)” value ([2]; pH = 5.0) was 96.7%.
With `O=C(O)c1cccnc1Nc1cccc(C(F)(F)F)c1` [NIF original, Niflumic acid] the “d = 0.1” value [1, 5] was 71.45 µm, the “d = 0.5” value [1, 6] was 183.25 µm and the “d = 0.9” value [1, 7] was 579.83 µm. The “d = 0.1” value [1, 8] was 56.21 µm, the “d = 0.5” value [1, 8] was 151.25 µm and the “d = 0.9” value [1, 8] was 488.95 µm. For the same molecule, the “d = 0.1” value [1, 9] was 19.07 µm, the “d = 0.5” value [1, 9] was 58.55 µm and the “d = 0.9” value [1, 9] was 128.24 µm. For the same molecule, the anionic form [2, 10] was 78.2%, the neutral form [2, 10] was 1.2% and the zwitterionic form [2, 10] was 20.6%. For the same molecule, the anionic form ([2]; pH = 6.5, calculated from protonation microconstants) was 99.1%, the pKa1 [3] was 2.26 and the pKa2 [3] was 4.44. The “solubility in pH = 5.0 medium compared with pH = 6.5 medium” value [4] was “approximately ten times lower”.
With `COc1ccc(Cc2nccc3cc(OC)c(OC)cc23)cc1OC` [PAP original, papaverine hydrochloride] the “d = 0.1” value [1, 5] was 153.97 µm, the “d = 0.5” value [1, 6] was 488.62 µm and the “d = 0.9” value [1, 7] was 887.93 µm. For the same molecule, the “d = 0.1” value [1, 8] was 4.60 µm, the “d = 0.5” value [1, 8] was 49.42 µm and the “d = 0.9” value [1, 8] was 189.96 µm. The “d = 0.1” value [1, 9] was 7.96 µm, the “d = 0.5” value [1, 9] was 33.39 µm and the “d = 0.9” value [1, 9] was 98.40 µm. For the same molecule, the molecules protonated ([2]; pH = 5.0) was 95.8% and the “molecule in deprotonated state” value ([2]; pH = 6.5) was “approximately 50%”.

Source: paper PMC9865396, “The Effect of the Particle Size Reduction on the Biorelevant Solubility and Dissolution of Poorly Soluble Drugs with Different Acid-Base Character” (Pharmaceutics, 2023)
